Where two headings read alike, the source gives them in different places. Blank lines part the entries; values can stand above or below the compound they belong to.
Legend:
[1] = system: Huh-7; assay: ATP-based luminescence cell viability assay (ViaLight), 72 h; parameters: species or system human; settings: 72 h treatment, read-out: EC50 Values of Olive Oil Polyphenols
Protocol: (§1) The antiproliferative/cytotoxic effects of the selected OOPs on each cell line were assessed by measuring the cellular ATP levels after 72 h treatments using an ATP-based luminescence assay. This assay, initially developed as a tumor chemosensitivity assay, has shown considerable promise as a general in vitro toxicity assay due to its high sensitivity that allows the detection of a small number of cells. Consequently, it can be applied to both cancer cell lines and primary tissue cells. […] The EC50 values were calculated by nonlinear regression (curve fit) using a sigmoidal dose–response equation (Figure 2A and Figure S2).
(§2) The OOPs tested in this study were first dissolved in an appropriate DMSO volume such as to prepare a final stock solution of 50 mM, which was further used to prepare various compound concentrations in DMSO-based solutions. The final DMSO concentration in the cell culture was maintained constant in all treated groups of any given experiment and never exceeded the value of 0.2% (v/v). For the treatment experiments, cells were plated in 96-well culture plates, in 100 μL of complete medium at a seeding density of 5000–10,000 cells/well—depending on cells’ size and doubling time—and were allowed to adhere overnight (~16 h). The next day, 150 μL of complete medium was added to each well and the cells were treated with various concentrations of OOPs. Each concentration was tested in triplicate and was repeated 2–3 times. To prepare the final concentration solutions, 0.5 μL of a 500× stock of each tested compound in DMSO was added directly into each well in a final volume of 250 μL culture medium and was gently mixed by pipetting. Control wells were prepared under the same experimental conditions by adding only DMSO at a final concentration of 0.2% (v/v). Compounds were not renewed during the entire period of cell exposure. All cells were cultured at 37 °C in a 5% (v/v) CO2 for 24, 48 or 72 h.
(§3) Briefly, after the treatment with OOPs, the adapted medium was removed from the dish wells and the cells were washed twice with medium without FBS. Then, the C-lysis (LT27-076) was diluted in PBS (1:2) and a volume of 50 μL was added to each well. Cells were incubated with C-lysis for at least 10 min. Finally, an equal volume of lysed cells from each well and ATP monitoring reagent (AMR; LT27-212) was transferred to the wells of a white-walled illuminometer plate (Greiner bio-one; 655074). Cell viability was quantified by measuring luminescence using a multi-mode microplate reader Safire^2 Tecan (software Magellan V6.00 STD.2PC WIN.20000/XP).

[2] = system: MDA-MB 231; assay: as above; parameters: species or system human; settings: for Selectivity index SI (MCF 10A): EC50 MCF 10A / EC50 MDA-MB 231; for EC50: MDA-MB 231, 72 h treatment, read-out: EC50 Values of Olive Oil Polyphenols
Protocol: as §1, §2, §3

[3] = system: MRC-5; assay: as above; parameters: species or system human; settings: MRC-5 (non cancer, lung), 72 h treatment, read-out: EC50 Values of Olive Oil Polyphenols
Protocol: as §1, §2, §3

[4] = system: H1299; assay: as above; parameters: species or system human; settings: for Selectivity index SI (MRC-5): EC50 MRC-5 / EC50 H1299; for EC50: H1299, 72 h treatment, read-out: EC50 Values of Olive Oil Polyphenols
Protocol: as §1, §2, §3

[5] = system: PANC-1; assay: as above; parameters: species or system human; settings: 72 h treatment, read-out: EC50 Values of Olive Oil Polyphenols
Protocol: as §1, §2, §3

[6] = system: Hela; assay: as above; parameters: species or system human; settings: 72 h treatment, read-out: EC50 Values of Olive Oil Polyphenols
Protocol: as §1, §2, §3

[7] = system: HT-29; assay: as above; parameters: species or system human; settings: 72 h treatment, read-out: EC50 Values of Olive Oil Polyphenols
Protocol: as §1, §2, §3

[8] = system: AGS; assay: as above; parameters: species or system human; settings: 72 h treatment, read-out: EC50 Values of Olive Oil Polyphenols
Protocol: as §1, §2, §3

[9] = system: HaCaT; assay: as above; parameters: species or system human; settings: HaCaT (immortal keratinocytes), 72 h treatment, read-out: EC50 Values of Olive Oil Polyphenols
Protocol: as §1, §2, §3

[10] = system: SK-BR-3; assay: as above; parameters: species or system human; settings: for Selectivity index SI (MCF 10A): EC50 MCF 10A / EC50 SK-BR-3; for EC50: SK-BR-3, 72 h treatment, read-out: EC50 Values of Olive Oil Polyphenols
Protocol: as §1, §2, §3

[11] = system: MKN-45; assay: as above; parameters: species or system human; settings: 72 h treatment, read-out: EC50 Values of Olive Oil Polyphenols
Protocol: as §1, §2, §3

[12] = system: H1437; assay: as above; parameters: species or system human; settings: for Selectivity index SI (MRC-5): EC50 MRC-5 / EC50 H1437; for EC50: H1437, 72 h treatment, read-out: EC50 Values of Olive Oil Polyphenols
Protocol: as §1, §2, §3

[13] = system: A2058; assay: as above; parameters: species or system human; settings: for Selectivity index SI (HaCaT): EC50 HaCaT / EC50 A2058; for Selectivity index SI (NHDF): EC50 NHDF / EC50 A2058; for EC50: A2058, 72 h treatment, read-out: EC50 Values of Olive Oil Polyphenols
Protocol: as §1, §2, §3

[14] = system: MCF-7; assay: as above; parameters: species or system human; settings: 72 h treatment, read-out: EC50 Values of Olive Oil Polyphenols
Protocol: as §1, §2, §3

[15] = system: ME-180; assay: as above; parameters: species or system human; settings: 72 h treatment, read-out: EC50 Values of Olive Oil Polyphenols
Protocol: as §1, §2, §3

[16] = system: Caco-2; assay: as above; parameters: species or system human; settings: 72 h treatment, read-out: EC50 Values of Olive Oil Polyphenols
Protocol: as §1, §2, §3

[17] = system: MCF 10A; assay: as above; parameters: species or system human; settings: MCF 10A (non-tumorigenic epithelial), 72 h treatment, read-out: EC50 Values of Olive Oil Polyphenols
Protocol: as §1, §2, §3

[18] = system: SK-MEL-28; assay: as above; parameters: species or system human; settings: for Selectivity index SI (HaCaT): EC50 HaCaT / EC50 SK-MEL-28; for Selectivity index SI (NHDF): EC50 NHDF / EC50 SK-MEL-28; for EC50: SK-MEL-28, 72 h treatment, read-out: EC50 Values of Olive Oil Polyphenols
Protocol: as §1, §2, §3

[19] = system: HepG-2; assay: as above; parameters: species or system human; settings: 72 h treatment, read-out: EC50 Values of Olive Oil Polyphenols
Protocol: as §1, §2, §3

[20] = system: NHDF; assay: as above; settings: NHDF (normal human dermal fibroblasts); 72 h treatment; read-out: EC50 Values of Olive Oil Polyphenols
Protocol: as §1, §2, §3

[21] = system: SK-BR-3; settings: 5 day treatment, read-out: EC50; cited from earlier work

EC50 ([1]; Homo sapiens, Huh-7, 72 h): 49.6 ± 0.5 µM
EC50 ([2]; Homo sapiens, MDA-MB-231, 72 h): 37.7 ± 2.2 µM
EC50 ([4]; Homo sapiens, NCI-H1299): 61.7 ± 1.3 µM
EC50 ([5]; Homo sapiens, PANC-1, 72 h): 30.9 ± 0.2 µM
EC50 ([6]; Homo sapiens, HeLa, 72 h): 46.3 ± 4.9 µM
EC50 ([7]; Homo sapiens, HT-29, 72 h): > 100 µM
EC50 ([8]; Homo sapiens, 72 h): 46.2 ± 2.3 µM
EC50 ([10]; Homo sapiens, SK-BR-3, 72 h): 45.6 ± 2.2 µM
EC50 ([11]; Homo sapiens, MKN-45, 72 h): 25 ± 2.1 µM
EC50 ([12]; Homo sapiens, NCI-H1437, 72 h): 74.6 ± 2.1 µM
EC50 ([14]; Homo sapiens, MCF7, 72 h): > 100 µM
EC50 ([16]; Homo sapiens, Caco-2, 72 h): > 100 µM
EC50 ([18]; Homo sapiens, SK-MEL-28, 72 h): 33.4 ± 2.4 µM
Compound: C/C=C(/C=O)[C@@H](CC=O)CC(=O)OCCc1ccc(O)c(O)c1 [compound 2, oleacein]
Selectivity index SI (MCF 10A) [2]: 0.7
EC50 ([3]; Homo sapiens, MRC5): 7 ± 0.9 µM
Selectivity index SI (MRC-5) [4]: 0.1
EC50 [9]: 51.8 ± 4.2 µM
EC50 ([9]; Homo sapiens, HaCaT, 72 h): > 50 µM
Selectivity index SI (MCF 10A) [10]: 0.5
Selectivity index SI (MRC-5) [12]: 0.1
Selectivity index SI (HaCaT) [13]: 0.9
Selectivity index SI (NHDF) [13]: 0.9
EC50 ([13]; Homo sapiens, A2058, 72 h): 55.7 ± 3.4 µM
EC50 ([15]; Homo sapiens, ME-180, 72 h): 25.2 ± 0.2 µM
EC50 ([17]; Homo sapiens): 24.7 ± 2.7 µM
Selectivity index SI (HaCaT) [18]: 1.6
Selectivity index SI (NHDF) [18]: 1.5
EC50 ([19]; Homo sapiens, HepG2, 72 h): 82.8 ± 0.7 µM
EC50 [20]: 49 ± 1.2 µM

EC50 [1]: 36 ± 0.9 µM
EC50 [2]: 31.6 ± 2.7 µM
EC50 [4]: 83.3 ± 1.9 µM
EC50 [5]: 45.7 ± 1.4 µM
EC50 [6]: 47.6 ± 1.8 µM
EC50 [7]: 98.2 ± 8.4 µM
EC50 [8]: 48.5 ± 2.5 µM
EC50 [10]: 21.5 ± 2.5 µM
EC50 [11]: 24 ± 1.2 µM
EC50 [12]: 11.6 ± 1.1 µM
EC50 [14]: 61.8 ± 1.2 µM
EC50 [16]: 24.4 ± 1.6 µM
EC50 [18]: 22.2 ± 1.2 µM
Compound: ligstroside aglycone [4a,b]
EC50 [21]: 26 ± 6 µM
Selectivity index SI (MCF 10A) [2]: 1.9
EC50 [3]: 13.2 ± 0.9 µM
Selectivity index SI (MRC-5) [4]: 0.2
EC50 [9]: 55.6 ± 1 µM
Selectivity index SI (MCF 10A) [10]: 2.6
Selectivity index SI (MRC-5) [12]: 1.1
EC50 [13]: 63.6 ± 1.6 µM
Selectivity index SI (HaCaT) [13]: 0.9
Selectivity index SI (NHDF) [13]: 0.7
EC50 [15]: 51.1 ± 2.2 µM
EC50 [17]: 55.8 ± 2.7 µM
Selectivity index SI (HaCaT) [18]: 2.5
Selectivity index SI (NHDF) [18]: 2.1
EC50 [19]: 45.8 ± 3.4 µM
EC50 [20]: 46.5 ± 5 µM

Source: publication PMC9820430, “New Affordable Methods for Large-Scale Isolation of Major Olive Secoiridoids and Systematic Comparative Study of Their Antiproliferative/Cytotoxic Effect on Multiple Cancer Cell Lines of Different Cancer Origins” (International Journal of Molecular Sciences, 2022)
